Assay results taken from patent publication US12077503B2, “Substituted cyclic amides and their use as herbicides” (FMC CORPORATION, priority 2015, dated 2024).

How the values were obtained:
Type in all cases: in vivo
[1] = tested on: velvetleaf (Abutilon theophrasti); test: Test G Post-Emergence Protocol; details: Abutilon theophrasti, post-emergence, 312 h, read-out: Velvetleaf damage rating; for pest or weed control at 15.625 g/ha: 15.625 g ai/ha, evaluated after 13 days (100=total damage to plant; 0=no damage to plant); for pest or weed control at 62.5 g/ha: 62.5 g ai/ha; for pest or weed control at 62.5 g/ha / pest or weed control at 250 g/ha: evaluated after 13 days, 100=total damage to plant, 0=no damage to plant; for pest or weed control at 250 g/ha: 250 g ai/ha
Outline: (§1)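 Damage was rated 13 days after treatment from 0 (none) to 100 (plant killed). Compound was applied as a spray at 15.625, 62.5 or 250 g/ha in 50:50 acetone/water containing 0.5% Tween 20, onto 8-day-old potted plants kept in a glasshouse (24/16 °C, 14 h light, 65% humidity).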

[2] = tested on: redroot pigweed (Amaranthus retroflexus); test: Test G Post-Emergence Protocol; details: Amaranthus retroflexus, post-emergence, 312 h, read-out: Pigweed, Redroot damage rating; for pest or weed control at 15.625 g/ha: 15.625 g ai/ha, evaluated after 13 days (100=total damage to plant; 0=no damage to plant); for pest or weed control at 62.5 g/ha: 62.5 g ai/ha; for pest or weed control at 62.5 g/ha / pest or weed control at 250 g/ha: evaluated after 13 days, 100=total damage to plant, 0=no damage to plant; for pest or weed control at 250 g/ha: 250 g ai/ha
Outline: as §1

[3] = tested on: ivy-leaved morning glory (Ipomoea hederacea); test: Test G Post-Emergence Protocol; details: Ipomoea, post-emergence, 312 h, read-out: Morningglory, Ivy-leaved damage rating; for pest or weed control at 15.625 g/ha: 15.625 g ai/ha, evaluated after 13 days (100=total damage to plant; 0=no damage to plant); for pest or weed control at 62.5 g/ha: 62.5 g ai/ha; for pest or weed control at 62.5 g/ha / pest or weed control at 250 g/ha: evaluated after 13 days, 100=total damage to plant, 0=no damage to plant; for pest or weed control at 250 g/ha: 250 g ai/ha
Outline: as §1

[4] = tested on: barnyardgrass (Echinochloa crus-galli); test: Test G Post-Emergence Protocol; details: Echinochloa crus-galli, post-emergence, 312 h, read-out: Barnyardgrass damage rating; for pest or weed control at 15.625 g/ha: 15.625 g ai/ha, evaluated after 13 days (100=total damage to plant; 0=no damage to plant); for pest or weed control at 62.5 g/ha: 62.5 g ai/ha; for pest or weed control at 62.5 g/ha / pest or weed control at 250 g/ha: evaluated after 13 days, 100=total damage to plant, 0=no damage to plant; for pest or weed control at 250 g/ha: 250 g ai/ha
Outline: as §1

[5] = tested on: giant foxtail (Setaria faberi); test: Test G Post-Emergence Protocol; details: Setaria faberi, post-emergence, 312 h, read-out: Foxtail, Giant damage rating; for pest or weed control at 15.625 g/ha: 15.625 g ai/ha, evaluated after 13 days (100=total damage to plant; 0=no damage to plant); for pest or weed control at 62.5 g/ha: 62.5 g ai/ha; for pest or weed control at 62.5 g/ha / pest or weed control at 250 g/ha: evaluated after 13 days, 100=total damage to plant, 0=no damage to plant; for pest or weed control at 250 g/ha: 250 g ai/ha
Outline: as §1

[6] = tested on: corn (Zea mays); test: Test G Post-Emergence Protocol; details: Zea mays, post-emergence, 312 h, read-out: Corn damage rating; for plant injury at 15.625 g/ha: 15.625 g ai/ha, evaluated after 13 days (100=total damage to plant; 0=no damage to plant); for plant injury at 62.5 g/ha: 62.5 g ai/ha; for plant injury at 62.5 g/ha / plant injury at 250 g/ha: evaluated after 13 days, 100=total damage to plant, 0=no damage to plant; for plant injury at 250 g/ha: 250 g ai/ha
Outline: as §1

[7] = tested on: velvetleaf (Abutilon theophrasti); test: Test G Pre-Emergence Protocol; details: Abutilon theophrasti, pre-emergence, 312 h, evaluated after 13 days; for pest or weed control at 15.625 g/ha: 15.625 g ai/ha; for pest or weed control at 15.625 g/ha / pest or weed control at 250 g/ha: read-out: Velvetleaf damage rating (100=total damage to plant; 0=no damage to plant); for pest or weed control at 62.5 g/ha: 62.5 g ai/ha, 100=total damage to plant, 0=no damage to plant, read-out: Velvetleaf damage rating; for pest or weed control at 250 g/ha: 250 g ai/ha
Outline: (§2)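 Under a 24/16° C day/night regime with 14 h light and 65% humidity, sown pots were sprayed after one day with compound (15.625, 62.5 or 250 g/ha; 50:50 acetone/water, 0.5% Tween 20). Damage was assessed visually 13 days later, 0 to 100.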

[8] = tested on: redroot pigweed (Amaranthus retroflexus); test: Test G Pre-Emergence Protocol; details: Amaranthus retroflexus, pre-emergence, 312 h, evaluated after 13 days; for pest or weed control at 15.625 g/ha: 15.625 g ai/ha; for pest or weed control at 15.625 g/ha / pest or weed control at 250 g/ha: read-out: Pigweed, Redroot damage rating (100=total damage to plant; 0=no damage to plant); for pest or weed control at 62.5 g/ha: 62.5 g ai/ha, 100=total damage to plant, 0=no damage to plant, read-out: Pigweed, Redroot damage rating; for pest or weed control at 250 g/ha: 250 g ai/ha
Outline: as §2

[9] = tested on: ivy-leaved morning glory (Ipomoea hederacea); test: Test G Pre-Emergence Protocol; details: Ipomoea, pre-emergence, 312 h, evaluated after 13 days; for pest or weed control at 15.625 g/ha: 15.625 g ai/ha; for pest or weed control at 15.625 g/ha / pest or weed control at 250 g/ha: read-out: Morningglory, Ivy-leaved damage rating (100=total damage to plant; 0=no damage to plant); for pest or weed control at 62.5 g/ha: 62.5 g ai/ha, 100=total damage to plant, 0=no damage to plant, read-out: Morningglory, Ivy-leaved damage rating; for pest or weed control at 250 g/ha: 250 g ai/ha
Outline: as §2

[10] = tested on: barnyardgrass (Echinochloa crus-galli); test: Test G Pre-Emergence Protocol; details: Echinochloa crus-galli, pre-emergence, 312 h, evaluated after 13 days; for pest or weed control at 15.625 g/ha: 15.625 g ai/ha; for pest or weed control at 15.625 g/ha / pest or weed control at 250 g/ha: read-out: Barnyardgrass damage rating (100=total damage to plant; 0=no damage to plant); for pest or weed control at 62.5 g/ha: 62.5 g ai/ha, 100=total damage to plant, 0=no damage to plant, read-out: Barnyardgrass damage rating; for pest or weed control at 250 g/ha: 250 g ai/ha
Outline: as §2

[11] = tested on: giant foxtail (Setaria faberi); test: Test G Pre-Emergence Protocol; details: Setaria faberi, pre-emergence, 312 h, evaluated after 13 days; for pest or weed control at 15.625 g/ha: 15.625 g ai/ha; for pest or weed control at 15.625 g/ha / pest or weed control at 250 g/ha: read-out: Foxtail, Giant damage rating (100=total damage to plant; 0=no damage to plant); for pest or weed control at 62.5 g/ha: 62.5 g ai/ha, 100=total damage to plant, 0=no damage to plant, read-out: Foxtail, Giant damage rating; for pest or weed control at 250 g/ha: 250 g ai/ha
Outline: as §2

[12] = tested on: corn (Zea mays); test: Test G Pre-Emergence Protocol; details: Zea mays, pre-emergence, 312 h, evaluated after 13 days; for plant injury at 15.625 g/ha: 15.625 g ai/ha; for plant injury at 15.625 g/ha / plant injury at 250 g/ha: read-out: Corn damage rating (100=total damage to plant; 0=no damage to plant); for plant injury at 62.5 g/ha: 62.5 g ai/ha, 100=total damage to plant, 0=no damage to plant, read-out: Corn damage rating; for plant injury at 250 g/ha: 250 g ai/ha
Outline: as §2

CN1C[C@@H](c2ccc(CO)cc2)[C@H](C(=O)Nc2cccc(F)c2F)C1=O (racemic) [Compound 1820]
pest or weed control at 15.625 g/ha [1]: 0%
pest or weed control at 62.5 g/ha [1]: 0%
pest or weed control at 250 g/ha [1]: 0%
pest or weed control at 15.625 g/ha [2]: 0%
pest or weed control at 62.5 g/ha [2]: 0%
pest or weed control at 250 g/ha [2]: 0%
pest or weed control at 15.625 g/ha [3]: 0%
pest or weed control at 62.5 g/ha [3]: 0%
pest or weed control at 250 g/ha [3]: 0%
pest or weed control at 15.625 g/ha [4]: 0%
pest or weed control at 62.5 g/ha [4]: 0%
pest or weed control at 250 g/ha [4]: 0%
pest or weed control at 15.625 g/ha [5]: 0%
pest or weed control at 62.5 g/ha [5]: 0%
pest or weed control at 250 g/ha [5]: 0%
plant injury at 15.625 g/ha [6]: 0%
plant injury at 62.5 g/ha [6]: 0%
plant injury at 250 g/ha [6]: 0%
pest or weed control at 15.625 g/ha [7]: 0%
pest or weed control at 62.5 g/ha [7]: 0%
pest or weed control at 250 g/ha [7]: 0%
pest or weed control at 15.625 g/ha [8]: 0%
pest or weed control at 62.5 g/ha [8]: 0%
pest or weed control at 250 g/ha [8]: 0%
pest or weed control at 15.625 g/ha [9]: 0%
pest or weed control at 62.5 g/ha [9]: 0%
pest or weed control at 250 g/ha [9]: 0%
pest or weed control at 15.625 g/ha [10]: 0%
pest or weed control at 62.5 g/ha [10]: 0%
pest or weed control at 250 g/ha [10]: 0%
pest or weed control at 15.625 g/ha [11]: 0%
pest or weed control at 62.5 g/ha [11]: 0%
pest or weed control at 250 g/ha [11]: 0%
plant injury at 15.625 g/ha [12]: 0%
plant injury at 62.5 g/ha [12]: 0%
plant injury at 250 g/ha [12]: 0%

CN1C[C@H](c2cccc(C(F)(F)F)c2)[C@@H](C(=O)Nc2cnccc2F)C1=O (racemic) [Compound 1745]
pest or weed control at 15.625 g/ha [1]: 0%
pest or weed control at 62.5 g/ha [1]: 0%
pest or weed control at 250 g/ha [1]: 0%
pest or weed control at 15.625 g/ha [2]: 0%
pest or weed control at 62.5 g/ha [2]: 0%
pest or weed control at 250 g/ha [2]: 20%
pest or weed control at 15.625 g/ha [3]: 0%
pest or weed control at 62.5 g/ha [3]: 30%
pest or weed control at 250 g/ha [3]: 40%
pest or weed control at 15.625 g/ha [4]: 10%
pest or weed control at 62.5 g/ha [4]: 70%
pest or weed control at 250 g/ha [4]: 80%
pest or weed control at 15.625 g/ha [5]: 10%
pest or weed control at 62.5 g/ha [5]: 60%
pest or weed control at 250 g/ha [5]: 70%
plant injury at 15.625 g/ha [6]: 0%
plant injury at 62.5 g/ha [6]: 0%
plant injury at 250 g/ha [6]: 0%
pest or weed control at 15.625 g/ha [7]: 0%
pest or weed control at 62.5 g/ha [7]: 0%
pest or weed control at 250 g/ha [7]: 0%
pest or weed control at 15.625 g/ha [8]: 0%
pest or weed control at 62.5 g/ha [8]: 0%
pest or weed control at 250 g/ha [8]: 20%
pest or weed control at 15.625 g/ha [9]: 0%
pest or weed control at 62.5 g/ha [9]: 0%
pest or weed control at 250 g/ha [9]: 10%
pest or weed control at 15.625 g/ha [10]: 0%
pest or weed control at 62.5 g/ha [10]: 0%
pest or weed control at 250 g/ha [10]: 60%
pest or weed control at 15.625 g/ha [11]: 0%
pest or weed control at 62.5 g/ha [11]: 10%
pest or weed control at 250 g/ha [11]: 50%
plant injury at 15.625 g/ha [12]: 0%
plant injury at 62.5 g/ha [12]: 0%
plant injury at 250 g/ha [12]: 0%
